According to patent publication US8999970B2, “Administration of an anti-obesity compound to individuals with renal impairment” (Arena Pharmaceuticals, Inc., priority 2010, dated 2015):
Values joined by “and” are separate entries in the source; they are usually repeats but may differ in a detail not shown here. Identical values can stand only once. “Also recorded” adds a separate entry of the source.

Assays:
[1] = Preclinical toxicology: lorcaserin, M1 and M5 pharmacokinetics after oral administration of lorcaserin, 52 wk, monkeys; conditions: for AUC0-inf / AUClast / Cmax / tmax: Monkeys, 52 wk; for AUC0-inf in monkeys relative to predicted daily exposure in severe renal impairment / Cmax in monkeys relative to predicted Cmax in severe renal impairment: monkeys 2 mg/kg/day (NOAEL); for AUC0-inf in monkeys relative to predicted daily exposure in severe renal impairment / AUC0-inf exposure margin, monkeys vs predicted daily exposure in severe renal impairment: human 10 mg BID; for Cmax in monkeys relative to predicted Cmax in severe renal impairment: human 10 mg BID steady state; for Dose proportionality of plasma exposure: Day 1, 2 to 125 mg/kg, both sexes
Description: Lorcaserin doses of 0, 2, 10, 50, and 125 mg/kg in a 5 mL/kg dose volume were administered by nasogastric intubation once daily for 12 months to cynomolgus monkeys (4 to 6/sex/group). Two animals/sex from the control, 50 and 125 mg/kg groups were continued on study without further dosing for an additional 4 weeks prior to termination. For the first 91 days of the study, dose solutions were prepared using anhydrous lorcaserin. Starting on Day 92 and continuing for the remainder of the study, dose solutions were prepared using lorcaserin hemihydrate to match the intended commercial form. […] Evaluations included clinical signs, food consumption, BW, electrocardiograms, ophthalmic exams, and clinical pathology indices. Blood samples were collected for TK analysis on Day 1, Week 4, Day 91, Day 92, and Week 52. A full necropsy was conducted on all animals, and tissues were collected, preserved, processed, and examined microscopically. Additional sections of heart were collected to allow comprehensive evaluation of all heart valves. Heart histopathologic evaluation included atria, ventricles, interventricular septum, both AV valves (mitral and tricuspid), and the aortic and pulmonic valves.

[2] = Modeled steady state exposures following lorcaserin 10 mg BID (simulations and noncompartmental analysis from QD data); conditions: for AUC24 hr / Cmax / t1/2: 10 mg BID Simulation, Steady State
Description: To better assess the potential implications of M1 and M5 levels in patients, steady state exposures (i.e. the state of equilibrium obtained at the end of a certain number of dosings) following lorcaserin 10 mg twice daily (BID) dosing were modeled using simulations and noncompartmental analysis based on data from pharmacokinetic studies with once daily (QD) dosing.
To better assess the potential implications of M1 levels in subjects with renal impairment, steady state M1 exposure following lorcaserin 10 mg BID administration was modeled using simulations and noncompartmental analysis based upon data from pharmacokinetic studies with once daily (QD) dosing. This modeling is discussed below in Example 5.
To better assess the potential implications of M1 and M5 levels, steady state exposures following lorcaserin 10 mg BID dosing were modeled using simulations and noncompartmental analysis based upon data from pharmacokinetic studies with once daily (QD) dosing.

[3] = lorcaserin 10 mg/kg/day oral, F
[4] = lorcaserin 10 mg/kg/day oral, M
[5] = lorcaserin 50 mg/kg/day oral, F
[6] = lorcaserin 50 mg/kg/day oral, M
[7] = lorcaserin 125 mg/kg/day oral, F
[8] = lorcaserin 125 mg/kg/day oral, M

With `C[C@H]1CN(S(=O)(=O)O)CCc2ccc(Cl)cc21` [Compound M1, lorcaserin sulfamate] the AUC0-inf ([1]; lorcaserin 2 mg/kg/day oral, F) was 41 µg·h/mL and 40.9 ± 1.6 µg·h/mL, the AUClast ([1]; lorcaserin 2 mg/kg/day oral, F) was 39.3 ± 1.8 µg·h/mL and the Cmax ([1]; lorcaserin 2 mg/kg/day oral, F) was 4580 ng/mL. The tmax ([1]; lorcaserin 2 mg/kg/day oral, F) was 1.5 ± 0.6 h, the AUC0-inf ([1]; lorcaserin 2 mg/kg/day oral, M) was 62 µg·h/mL and 61.6 ± 15.4 µg·h/mL and the AUClast ([1]; lorcaserin 2 mg/kg/day oral, M) was 56.4 ± 14.3 µg·h/mL. It also gave a Cmax ([1]; lorcaserin 2 mg/kg/day oral, M) of 5010 ng/mL, a tmax ([1]; lorcaserin 2 mg/kg/day oral, M) of 3.0 ± 1.2 h and an AUC0-inf [1, 3] of 307 ± 66 µg·h/mL. It also gave an AUClast [1, 3] of 269 ± 40 µg·h/mL, a Cmax [1, 3] of 27500 ± 6600 ng/mL and a tmax [1, 3] of 2.5 ± 1.0 h. For the same compound, the AUC0-inf [1, 4] was 312 ± 79 µg·h/mL, the AUClast [1, 4] was 276 ± 74 µg·h/mL and the Cmax [1, 4] was 22000 ± 7600 ng/mL. For the same compound, the tmax [1, 4] was 3.3 ± 1.5 h, the AUC0-inf [1, 5] was 877 ± 221 µg·h/mL and the AUClast [1, 5] was 771 ± 182 µg·h/mL. For the same compound, the Cmax [1, 5] was 56300 ± 13400 ng/mL, the tmax [1, 5] was 5.2 ± 2.4 h and the AUC0-inf [1, 6] was 1060 ± 313 µg·h/mL. It also gave an AUClast [1, 6] of 904 ± 228 µg·h/mL, a Cmax [1, 6] of 62300 ± 14100 ng/mL and a tmax [1, 6] of 4.7 ± 1.6 h. It also gave an AUC0-inf [1, 7] of 1910 ± 865 µg·h/mL, an AUClast [1, 7] of 1580 ± 501 µg·h/mL and a Cmax [1, 7] of 115000 ± 24000 ng/mL. The tmax [1, 7] was 3.5 ± 2.5 h, the AUC0-inf [1, 8] was 2020 ± 856 µg·h/mL and the AUClast [1, 8] was 1460 ± 269 µg·h/mL. The Cmax [1, 8] was 106000 ± 31000 ng/mL, the tmax [1, 8] was 3.7 ± 2.3 h and the “AUC0-inf in monkeys relative to predicted daily exposure in severe renal impairment” value [1] was 1.6-2.4 times. For the same compound, the “Cmax in monkeys relative to predicted Cmax in severe renal impairment” value [1] was “approximately 5 times”, the “Cmax margin, monkeys vs predicted exposure in severe renal impairment” value ([1]; monkeys 10 mg/kg/day) was 20-25 times and the “AUC0-inf exposure margin, monkeys vs predicted daily exposure in severe renal impairment” value ([1]; monkeys 10 mg/kg/day) was “about 12 fold”. The “Dose proportionality of plasma exposure” value ([1]; monkeys) was “less than dose proportional”, the AUC24 hr ([2]; Mild) was 4620 ng·h/mL and the Cmax ([2]; Mild) was 207 ng/mL. For the same compound, the t1/2 ([2]; Mild) was 34.6 h, the AUC24 hr ([2]; Moderate) was 9670 ng·h/mL and the Cmax ([2]; Moderate) was 414 ng/mL. For the same compound, the t1/2 ([2]; Moderate) was 109 h, the AUC24 hr ([2]; Normal) was 2790 ng·h/mL and the Cmax ([2]; Normal) was 130 ng/mL. For the same compound, the t1/2 ([2]; Normal) was 30.0 h, the AUC24 hr ([2]; Severe) was 25,500 hr · ng/mL and the Cmax ([2]; Severe) was 1090 ng/mL. For the same compound, the t1/2 ([2]; Severe) was 99.2 h and the “Level some individuals with severe renal impairment might reach at steady state” value ([2]; five times the modeled mean of 1090 ng/mL) was “over 5000 ng/mL; also recorded: more than 5000 ng/mL”.
Compound `C[C@H]1CN(C(=O)O[C@@H]2O[C@H](C(=O)O)[C@@H](O)[C@H](O)[C@H]2O)CCc2ccc(Cl)cc21` [Compound M5, N-carbamoyl glucuronide of lorcaserin] has an AUC0-inf ([1]; lorcaserin 2 mg/kg/day oral, F) of 2.13 ± 0.82 µg·h/mL, an AUClast ([1]; lorcaserin 2 mg/kg/day oral, F) of 1.76 ± 0.83 µg·h/mL and a Cmax ([1]; lorcaserin 2 mg/kg/day oral, F) of 771 ± 104 ng/mL. It also gave a tmax ([1]; lorcaserin 2 mg/kg/day oral, F) of 0.5 ± 0.0 h, an AUC0-inf ([1]; lorcaserin 2 mg/kg/day oral, M) of 2.38 ± 0.29 µg·h/mL and an AUClast ([1]; lorcaserin 2 mg/kg/day oral, M) of 1.82 ± 0.57 µg·h/mL. The Cmax ([1]; lorcaserin 2 mg/kg/day oral, M) was 635 ± 310 ng/mL, the tmax ([1]; lorcaserin 2 mg/kg/day oral, M) was 0.8 ± 0.3 h and the AUC0-inf [1, 3] was 6.52 ± 1.52 µg·h/mL. It also gave an AUClast [1, 3] of 6.14 ± 1.71 µg·h/mL, a tmax [1, 3] of 1.0 ± 0.7 h and an AUC0-inf [1, 4] of 13.6 ± 5.0 µg·h/mL. The AUClast [1, 4] was 12.5 ± 6.1 µg·h/mL, the Cmax [1, 4] was 2480 ± 1140 ng/mL and the tmax [1, 4] was 1.8 ± 0.5 h. It also gave an AUC0-inf [1, 5] of 40.4 ± 13.4 µg·h/mL, an AUClast [1, 5] of 38.7 ± 12.7 µg·h/mL and a Cmax [1, 5] of 3600 ± 620 ng/mL. The tmax [1, 5] was 3.2 ± 1.8 h, the AUC0-inf [1, 6] was 71.4 ± 26.6 µg·h/mL and the AUClast [1, 6] was 69.0 ± 25.8 µg·h/mL. It also gave a Cmax [1, 6] of 7040 ± 2050 ng/mL, a tmax [1, 6] of 2.3 ± 1.9 h and an AUC0-inf [1, 7] of 140 ± 78 µg·h/mL. For the same compound, the AUClast [1, 7] was 134 ± 78 µg·h/mL, the Cmax [1, 7] was 19700 ± 13500 ng/mL and the tmax [1, 7] was 2.7 ± 2.0 h. The AUC0-inf [1, 8] was 182 ± 77 µg·h/mL, the AUClast [1, 8] was 170 ± 64 µg·h/mL and the Cmax [1, 8] was 15800 ± 3700 ng/mL. For the same compound, the tmax [1, 8] was 2.2 ± 1.9 h, the “AUC0-inf in monkeys relative to predicted daily exposure in moderate renal impairment” value ([1]; monkeys 2 mg/kg/day) was “approximately equal” and the “AUC0-inf in monkeys relative to predicted daily exposure in severe renal impairment” value [1] was “approximately half”. For the same compound, the “Cmax in monkeys relative to predicted Cmax in severe renal impairment” value [1] was 2.8-3.5 times, the “Exposure in monkeys relative to predicted daily exposure in moderate renal impairment” value ([1]; monkeys 10 mg/kg/day) was 3.0-6.3 times and the “AUC0-inf exposure margin, monkeys vs predicted daily exposure in severe renal impairment” value ([1]; monkeys 10 mg/kg/day) was 1.5-3.2 fold. For the same compound, the “Dose proportionality of plasma exposure” value ([1]; monkeys) was “more than dose proportional”, the “Exposure relative to the concomitant lorcaserin exposure, higher” value ([1]; monkeys, single or multiple doses of lorcaserin) was “up to 3 fold” and the AUC24 hr ([2]; ESRD) was 20100 ng·h/mL. It also gave a Cmax ([2]; ESRD) of 936 ng/mL, a t1/2 ([2]; ESRD) of 22.9 h and an AUC24 hr ([2]; Mild) of 1090 ng·h/mL. It also gave a Cmax ([2]; Mild) of 78.1 ng/mL, a t1/2 ([2]; Mild) of 5.41 h and an AUC24 hr ([2]; Moderate) of 2150 ng·h/mL. The Cmax ([2]; Moderate) was 141 ng/mL, the t1/2 ([2]; Moderate) was 9.83 h and the AUC24 hr ([2]; Normal) was 765 ng·h/mL. For the same compound, the Cmax ([2]; Normal) was 77.3 ng/mL, the t1/2 ([2]; Normal) was 6.11 h and the AUC24 hr ([2]; Severe) was 4260 ng·h/mL. It also gave a Cmax ([2]; Severe) of 223 ng/mL and a t1/2 ([2]; Severe) of 11.0 h.
In the case of `C[C@H]1CNCCc2ccc(Cl)cc21` [Lorcaserin, (R)-8-chloro-1-methyl-2,3,4,5-tetrahydro-1H-3-benzazepine], the “Dose proportionality of plasma exposure” value ([1]; monkeys) is reported as “dose linear”, the AUC24 hr ([2]; ESRD) is reported as 1860 ng·h/mL and the Cmax ([2]; ESRD) is reported as 87.6 ng/mL. It also gave a t1/2 ([2]; ESRD) of 24.8 h, an AUC24 hr ([2]; Mild) of 1270 ng·h/mL and a Cmax ([2]; Mild) of 64.1 ng/mL. For the same compound, the t1/2 ([2]; Mild) was 12.0 h, the AUC24 hr ([2]; Moderate) was 935 ng·h/mL and the Cmax ([2]; Moderate) was 49.5 ng/mL. For the same compound, the t1/2 ([2]; Moderate) was 11.5 h, the AUC24 hr ([2]; Normal) was 942 ng·h/mL and the Cmax ([2]; Normal) was 55.8 ng/mL. For the same compound, the t1/2 ([2]; Normal) was 8.28 h, the AUC24 hr ([2]; Severe) was 835 ng·h/mL and the Cmax ([2]; Severe) was 40.9 ng/mL. The t1/2 ([2]; Severe) was 12.8 h.
